Where no end group is shown, it is not given here.

Five substances from patent US20240110004A1 (Northwestern University, priority 2022, published 2024) can be followed below.

For data set [1] the following is noted: mouse, in vivo.
Data set [2] relates to HdhQ111 cells. Description: Cell uptake by confocal microscopy and flow cytometry. The data set is classed as cell-based, mouse. Conditions: compared to the HV3-TAT-Rho peptide and rhodamine dye control. The method, then: Scale bars: 60 μm; 12 μm for inset. Cell Membrane: wheat germ agglutinin-Alexa 488 (green channel). Material: Rhodamine (red channel). Nuclei: Hoechst 33342 stain (blue channel).
Cell Uptake Methods: A major drawback for most peptide-based drugs is poor innate cell membrane permeability, such that many peptide-based drugs fail to reach their putative intracellular targets. Cellular uptake was evaluated by confocal microscopy and flow cytometry using a rhodamine dye labeled version of HV3-TAT (HV3-TAT-Rho) and a rhodamine labeled version of P1 (P1-Rho, e.g., as shown in FIG. 28A). FIG. 28B provides the relative fluorescent intensities of rhodamine alone, HV3-TAT-Rho, and P1-Rho—rhodamine showing near 1:1 addition of dye on to compounds.
For orientation: Flow cytometry measures light scatter and fluorescence of single cells or particles in a stream.

Data set [3] has as its system HdhQ111 cells. In words: Accumulation assay, flow cytometry 2 and 7 days after a single treatment. It is filed as cell-based, mouse. The settings on record: two and seven days after one treatment.
In data set [4] the test system is HdhQ111 cells. In words: Mitochondrial localization in live HdhQ111 cells. The data set is classed as cell-based, mouse. Conditions: 3 μM, Mitotracker staining. The method, then: FIG. 7: Mitochondrial localization in live HdhQ111 cells. HdhQ111 cells were treated with HV3-TAT-Rho peptide, P1-Rho, and rhodamine dye alone at a concentration of 3 μM. Yellow (i.e., “localization” in FIG. 7) indicates colocalization of green and red channels, signifying localization to the mitochondria. Mitochondria: Mitotracker Green FM (green channel). Material: Rhodamine (red channel). Nuclei: Hoechst 33342 stain (blue channel). Scale Bars: 60 μm; 12 μm for inset.
Mitochondrial Localization Methods: A decisive pathologic hallmark for HdhQ111 cells is mitochondrial fragmentation. Since the mitochondrial membrane is the specific intracellular target location for the designed system, mitochondrial localization of P1-Rho in HdhQ111 cells was evaluated. To visualize mitochondrial localization, the mitochondria were stained with Mito Tracker.

For data set [5], the system named is HdhQ111 cells. Description: Cell viability (cell rescue) of serum-starved HdhQ111 cells. It is filed as cell-based, mouse. The settings on record: 3 μM with respect to peptide, once a day for 3 days; compared to the vehicle control. As to the method:
FIG. 3A: Cell viability of HV3-TAT peptide and PLPs. Compounds treated to the HdhQ111 cells once a day for 3 days. Concentration was 3 μM with respect to peptide. FIG. 3B: VCP binding assay results for HV3-TAT, P1, P2, and P4.
Cell Viability Methods: In vitro assays were carried out to examine the bioactivity of the PLPs, P1, P2, P3, and P4 and to compare against the known, active HV3-TAT. […] HdhQ111 cells were immortalized from knock-in mice carrying 111 CAG repeats in the mouse Htt gene.
To verify that the PLPs retain bioactivity after being exposed to enzymes or serum treatments, the viability of HD mouse mutant striatal HdhQ111 cells was assessed following treatment with HV3-TAT and P1. […] Cells were maintained at 33° C. and 5% CO2 with a relative humidity of 95%. HdQ111 cells were plated in 96-well plates at a density of 5000 per well and then left to attach for 24 h. Cells were treated with HV3-TAT or PLPs at 3 μM with respect to peptide once a day, for 3 days. The medium was replaced every day. After 72 h, cells were washed 3 times with PBS buffer. At this point, 20 μL of CTB reagent in 80 uL of medium was added, and the cells incubated for 3 hours at 37° C. Fluorescence was measured at 590 nm with excitation at 560 nm using a Perkin Elmer EnSpire plate reader. The average background fluorescence of CTB in media without cells was subtracted from the average fluorescence readings of the experimental wells. Viability was calculated as the average background-subtracted signal in a well compared to that of a negative control well (treatment with vehicle or media). Three replicates were performed for each independent sample. 10% DMSO was used as a positive control and untreated cells in complete medium as a negative control. Viability is reported as a percentage of untreated cells.

In data set [6] the target is T1, interaction between VCP and mtHtt (Homo sapiens, UniProt P55072).
T1 construct: GFP; expressed in transfected cells; host or cells: HEK293
Description: VCP binding assay: association of VCP to mtHtt by immunoprecipitation and western blot in HEK293 cells. It is filed as cell-based. Conditions: HEK293 cells co-transfected with GFP-VCP and myc-Q73 FL, 3 μM, three doses. The method, then: Therefore, target engagement protein binding assays were conducted. HEK293 cells were cultured and plated one day before treatment. Cells were pre-treated with HV3-TAT or PLPs at 3 μM for 2 h. Cells were then co-transfected with GFP-VCP and myc-Q73 FL plasmids. Cells were treated with a second dose of peptide or PLPs 6 hours after transfection, and a final third dose of peptide or PLPs treatment was administered 24 hours after transfection. Cell total lysate was harvested 48 hours after transfection, and to confirm binding of PLPs to VCP in cells, association of VCP to mtHtt was quantified by immunoprecipitation (IP) followed by western blot upon treatment of HV3-TAT peptide and PLPs.
In general terms: Immunoblotting shows a protein as a band on a membrane.

Data set [7] relates to HdhQ111 cells. In words: Mitochondrial fragmentation assay. Conditions: compared to vehicle treatment group, at least 100 cells per group. The data set is classed as cell-based, mouse. As to the method:
FIG. 8: Mitochondrial fragmentation assay. The percentage of HdhQ111 cells with fragmented mitochondria relative to the total number of cells was quantitated. At least 100 cells per group were counted.
FIG. 9: Mitochondrial fragmentation assay. Mitochondrial morphology was determined by staining cells with anti-Tom20 antibody. Nuclei: Hoechst 33342 stain. […] Scale Bars: 60 μm; 12 μm for inset.
Mitochondrial Fragmentation Methods: As preventing the fragmentation of the mitochondria is important for maintaining the health of striatal cells in the HD in vitro model, the PLP's abilities were tested in this regard.

In data set [8] the test system is pepsin. Description: pepsin. The settings on record: 37° C., up to 450 min.
A short description of data set [9]: enzymes (0.1 μM) in DPBS (pH 7.4) or hydrochloric acid solution (pH 2). The settings on record: 37° C.
Data set [10] is described as follows: Dulbecco's modified Eagle medium (DMEM) supplemented with 10% fetal bovine serum (FBS). The settings on record: 37° C.
Data set [11] in a line: Dulbecco's modified Eagle medium (DMEM) supplemented with 25% fetal bovine serum (FBS). Conditions: 37° C.

T1 sequence (P55072 whole entry): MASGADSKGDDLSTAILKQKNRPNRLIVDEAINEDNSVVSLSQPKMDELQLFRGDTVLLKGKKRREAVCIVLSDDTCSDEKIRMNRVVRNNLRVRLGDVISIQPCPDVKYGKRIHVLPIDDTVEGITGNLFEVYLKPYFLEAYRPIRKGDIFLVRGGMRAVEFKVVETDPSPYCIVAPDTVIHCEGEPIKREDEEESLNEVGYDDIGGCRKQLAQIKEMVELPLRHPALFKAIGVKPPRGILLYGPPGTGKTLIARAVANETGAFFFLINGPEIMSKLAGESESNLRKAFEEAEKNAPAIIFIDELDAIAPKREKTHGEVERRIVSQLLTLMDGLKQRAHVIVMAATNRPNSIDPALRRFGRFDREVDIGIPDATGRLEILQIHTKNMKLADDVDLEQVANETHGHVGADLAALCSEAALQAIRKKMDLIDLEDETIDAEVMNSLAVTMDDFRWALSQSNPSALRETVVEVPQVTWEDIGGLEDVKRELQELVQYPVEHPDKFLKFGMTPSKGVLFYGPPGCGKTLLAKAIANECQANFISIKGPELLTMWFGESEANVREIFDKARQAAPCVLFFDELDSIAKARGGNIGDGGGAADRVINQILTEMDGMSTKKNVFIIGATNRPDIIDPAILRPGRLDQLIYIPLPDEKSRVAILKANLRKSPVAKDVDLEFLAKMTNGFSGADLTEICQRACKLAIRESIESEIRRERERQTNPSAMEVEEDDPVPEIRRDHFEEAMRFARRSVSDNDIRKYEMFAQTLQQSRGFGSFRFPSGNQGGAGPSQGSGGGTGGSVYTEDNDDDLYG

On to “P1-Gd: P1 PLP terminated with the Gd-DOTA terminating agent (contrast agent tag) for ICPMS quantification (HVLVMSATRR-NH2; not fully specified (N-terminus); also: side chains of polynorbornene homopolymer (PLP, ROMP), Gd-DOTA terminating agent on polymer terminus)”, for which, in data set [1], the “biodistribution, main organs” value is “majority of the compound injected ends up in the liver and kidney”; the “detection in the CNS” value is reported as “detectable in the CNS”; the “increase in half-life compared to the HV3-TAT peptide” value is 3000 fold. In data set [1] (iv, 10 mg/kg), this substance yielded a distribution half-life of 0.333 h and an elimination half-life of 152 h.

Turning to “P1-Rho: rhodamine labeled version of P1 (HVLVMSATRR-NH2; not fully specified (N-terminus); also: side chains of polynorbornene homopolymer (PLP), rhodamine label (site not given here))”, the “cell association by flow cytometry” value in [2] is on record as “significantly better cell association”. In addition, the “presence of compound in cells after one initial treatment” value in data set [3] is recorded as “detected”. Also, the mitochondrial localization entry in data set [4] was “exhibited overlapping signals with mitochondria”.

As for “P2: PLP homopolymer having peptide side chains of SEQ ID: 2 (HVLVMSATKK) (HVLVMSATKK-NH2; not fully specified (N-terminus); also: side chains of polynorbornene homopolymer (PLP))”, the cell viability result in data set [5] is reported as “higher significance than P3”.

On to “P4: PLP homopolymer having peptide side chains of SEQ ID: 4 (HVLVMSATKKKK) (HVLVMSATKKKK-NH2; not fully specified (N-terminus); also: side chains of polynorbornene homopolymer (PLP))”, for which the cell viability result in data set [5] is reported as “higher significance than P3”. The “association of VCP to mtHtt (VCP binding)” value in data set [6] is listed as “exhibited evidence for binding”. Besides, the fragmented mitochondria entry in [7] was “significantly fewer fragmented mitochondria”.

For “PLP homopolymer having peptide side chains of SEQ ID: 1 (HVLVMSATRR)”, the not cleaved entry is “no cleavage observed for up to 450 min” in [8], “maintained molecular weight running together with the untreated P1 control” in data set [9], “stability of P1 seen with serum treatments” in data set [10] and “stability of P1 seen with serum treatments” in [11].
